Laboratory results from patent US20260193268A1, “TRICYCLIC PI3Ka INHIBITOR, PREPARATION METHOD THEREFOR, AND PHARMACEUTICAL USE THEREOF” (WIGEN BIOMEDICINE TECHNOLOGY (SHANGHAI) CO., LTD., priority 2022, published 2026).
pIC50: −log10 of the molar value.

Legend:
[1] = test system: HCC1954 cells (with PI3Kα H1047R mutation); assay: In vitro inhibition of HCC1954 cell proliferation (CellTiter-Lumi); assay type: cell-based; details: Homo sapiens, HCC1954, 144 h, HCC1954 cells, 144 h, CellTiter-Lumi; numeric values; read-out: Inhibitory activity against HCC1954 cells (IC50)
Description: Assay for In Vitro Inhibition of HCC1954 Cell Proliferation by Compounds of the Present Disclosure
The growth of the cells was evaluated, and the IC50 for the inhibition of cell growth by the compounds was calculated.

[2] = test system: MCF-7 cells (with PI3Kα E545K mutation); assay: In vitro inhibition of MCF-7 cell proliferation (CellTiter-Lumi); assay type: cell-based; details: Homo sapiens, MCF7, 144 h, numeric values, read-out: Inhibitory activity against MCF-7 cells (IC50)
Description: Biological Example 3. Assay for In Vitro Inhibition of MCF-7 Cell Proliferation by Compounds of the Present Disclosure
MCF-7 cells (with PI3Kα E545K mutation) were seeded into a 384-well plate (Fisher 142762) at 2000 cells per well. The next day, serially diluted compounds were added, and 144 h after the addition, CellTiter-Lumi (Beyotime C0068XL) was added to measure the ATP content in the cells. The growth of the cells was evaluated, and the IC50 for the inhibition of cell growth by the compounds was calculated.

SMILES | pIC50 [1] | pIC50 [2]
CC(C)(C=C(C#N)C(=O)Nc1ccc(N2CC(N3CCN(c4ccc5c(c4)-c4nc(N6C(=O)OC[C@H]6C(F)F)cn4CCO5)CC3)C2)cc1)N1CCOCC1 [Compound 138] | 6.96 | 7.46
C=CC(=O)Nc1ccc(N2CC(N3CCN(c4ccc5c(c4)-c4nc(N6C(=O)OC[C@H]6C(F)F)cn4CCO5)CC3)C2)cc1C [Compound 139] | 8.17 | 9.22
C=CC(=O)Nc1cc(C)c(N2CC(N3CCN(c4ccc5c(c4)-c4nc(N6C(=O)OC[C@H]6C(F)F)cn4CCO5)CC3)C2)cn1 [Compound 140] | 8.22 | 9.52
CC(C)(C=C(C#N)C(=O)Nc1ccc(N2CC(N3CCN(c4ccc5c(c4)-c4nc(N6C(=O)OC[C@H]6C(F)F)cn4CCO5)CC3)C2)cc1)N1CC2(COC2)C1 [Compound 141] | 8.17 | 9.22
C=CC(=O)Nc1ccc(N2CC(N3CCN(c4ccc5c(c4)-c4nc(N6C(=O)OC[C@H]6C(F)F)cn4CCO5)CC3)C2)cc1C(F)(F)F [Compound 142] | 8.08 | 9.30
C=CC(=O)Nc1ccc(N2CC(N3CCN(c4ccc5c(c4)-c4nc(N6C(=O)OC[C@H]6C(F)F)cn4CCO5)CC3)C2)cc1C#N [Compound 143] | 8.66 | 10.00
CC(C)C=C(C#N)C(=O)Nc1ccc(N2CC(N3CCN(c4ccc5c(c4)-c4nc(N6C(=O)OC[C@H]6C(F)F)cn4CCO5)CC3)C2)cc1 [Compound 144] | 7.26 | 7.66
CNC(C)(C)C=C(C#N)C(=O)Nc1ccc(N2CC(N3CCN(c4ccc5c(c4)-c4nc(N6C(=O)OC[C@H]6C(F)F)cn4CCO5)CC3)C2)cc1 [Compound 145] | 9.22 | 10.00
C=CC(=O)N(C)c1ccc(N2CC(N3CCN(c4ccc5c(c4)-c4nc(N6C(=O)OC[C@H]6C(F)F)cn4CCO5)CC3)C2)cc1 [Compound 146] | 7.12 | 8.18
C=CC(=O)Nc1ccc(N2CC(N3CCN(c4ccc5c(c4)-c4nc(N6C(=O)OC[C@H]6C)cn4CCO5)CC3)C2)cn1 [Compound 147] | 7.54 | 8.82
CN(C)C/C=C/C(=O)Nc1ccc(N2CC(N3CCN(c4ccc5c(c4)-c4nc(N6C(=O)OC[C@H]6C(F)F)cn4CCO5)CC3)C2)cn1 [Compound 148] | 8.00 | 9.70
CC#CC(=O)Nc1ccc(N2CC(N3CCN(c4ccc5c(c4)-c4nc(N6C(=O)OC[C@H]6C(F)F)cn4CCO5)CC3)C2)c(F)c1 [Compound 149] | 6.94 | 7.80
CN(C)C(C)(C)C=C(C#N)C(=O)Nc1ccc(N2CC(N3CCN(c4ccc5c(c4)-c4nc(N6C(=O)OC[C@H]6C(F)F)cn4CCO5)CC3)C2)cc1 [Compound 150] | 6.92 | 7.46
C=CC(=O)Nc1ccc(N2CC(N3CCN(c4ccc5c(c4)-c4nc(N6C(=O)OC[C@H]6C(F)F)cn4CCO5)CC3)C2)c(C)n1 [Compound 151] | 8.25 | 9.52
C#CC(=O)Nc1ccc(N2CC(N3CCN(c4ccc5c(c4)-c4nc(N6C(=O)OC[C@H]6C(F)F)cn4CCO5)CC3)C2)cc1 [Compound 152] | 7.31 | 8.01
CN(C)CC#CC(=O)Nc1ccc(N2CC(N3CCN(c4ccc5c(c4)-c4nc(N6C(=O)OC[C@H]6C(F)F)cn4CCO5)CC3)C2)cc1 [Compound 153] | 8.00 | 9.10
C=CC(=O)N1CCc2nc(N3CC(N4CCN(c5ccc6c(c5)-c5nc(N7C(=O)OC[C@H]7C(F)F)cn5CCO6)CC4)C3)sc2C1 [Compound 154] | 7.27 | 8.31
C=CC(=O)N1CCc2sc(N3CC(N4CCN(c5ccc6c(c5)-c5nc(N7C(=O)OC[C@H]7C(F)F)cn5CCO6)CC4)C3)nc2C1 [Compound 155] | 7.36 | 8.29
CN(C1CCC1)C(C)(C)C=C(C#N)C(=O)Nc1ccc(N2CC(N3CCN(c4ccc5c(c4)-c4nc(N6C(=O)OC[C@H]6C(F)F)cn4CCO5)CC3)C2)cc1 [Compound 156] | 7.31 | 7.72
CC(C)=CC(=O)CCCCC(=O)N1CC(N2CCN(c3ccc4c(c3)-c3nc(N5C(=O)OC[C@H]5C(F)F)cn3CCO4)CC2)C1 [Compound 157] | 6.64 | 7.62
CC(C)=CC(=O)CCCCC(=O)N1CCN(c2ccc3c(c2)-c2nc(N4C(=O)OC[C@H]4C(F)F)cn2CCO3)CC1 [Compound 158] | 6.60 | 6.49
C=CC(=O)N1CCCc2cc(N3CC(N4CCN(c5ccc6c(c5)-c5nc(N7C(=O)OC[C@H]7C(F)F)cn5CCO6)CC4)C3)ccc21 [Compound 159] | 7.55 | 8.74

Further lines, results first:

pIC50 [1] | pIC50 [2] | SMILES
7.33 | 8.46 | C=CC(=O)Nc1ccc(C2CN(C3CCN(c4ccc5c(c4)-c4nc(N6C(=O)OC[C@H]6C(F)F)cn4CCO5)CC3)C2)cc1 [Compound 160]
8.54 | 9.30 | C=CC(=O)Nc1ccc(N2CC(N3CCN(c4ccc5c(c4)-c4nc(N6C(=O)OC[C@H]6C(F)F)cn4CCO5)CC3)C2)nn1 [Compound 161]
8.47 | 9.40 | C=CC(=O)Nc1ncc(N2CC(N3CCN(c4ccc5c(c4)-c4nc(N6C(=O)OC[C@H]6C(F)F)cn4CCO5)CC3)C2)cn1 [Compound 162]
8.18 | 9.30 | C=CC(=O)Nc1ncc(N2CC(N3CCN(c4ccc5c(c4)-c4nc(N6C(=O)OC[C@H]6C(F)F)cn4CCO5)CC3)C2)cc1C [Compound 163]
7.28 | 8.52 | C=CC(=O)N1CCn2nc(N3CC(N4CCN(c5ccc6c(c5)-c5nc(N7C(=O)OC[C@H]7C(F)F)cn5CCO6)CC4)C3)cc2C1 [Compound 164]
7.52 | 8.47 | CC#CC(=O)N1CCc2cc(N3CC(N4CCN(c5ccc6c(c5)-c5nc(N7C(=O)OC[C@H]7C(F)F)cn5CCO6)CC4)C3)ccc21 [Compound 165]
8.03 | 8.92 | C=CC(=O)N1CCc2c1ccc(N1CC(N3CCN(c4ccc5c(c4)-c4nc(N6C(=O)OC[C@H]6C(F)F)cn4CCO5)CC3)C1)c2F [Compound 166]
6.26 | 6.66 | C=CC(=O)N1CCc2cc(N3CC(N4CCN(c5ccc6c(c5)-c5nc(N7C(=O)OC[C@H]7C(F)F)cn5CCO6)CC4)C3)cnc21 [Compound 167]
8.31 | 8.16 | COCC#CC(=O)Nc1ccc(N2CC(N3CCN(c4ccc5c(c4)-c4nc(N6C(=O)OC[C@H]6C(F)F)cn4CCO5)CC3)C2)cc1 [Compound 168]
9.00 | 10.00 | C=CC(=O)N1CCc2nc(N3CC(N4CCN(c5ccc6c(c5)-c5nc(N7C(=O)OC[C@H]7C(F)F)cn5CCO6)CC4)C3)ccc21 [Compound 169]
7.11 | 7.77 | NC/C=C/C(=O)Nc1ccc(N2CC(N3CCN(c4ccc5c(c4)-c4nc(N6C(=O)OC[C@H]6C(F)F)cn4CCO5)CC3)C2)cc1 [Compound 170]
7.85 | 8.35 | CC(C)(C=C(C#N)C(=O)Nc1ccc(N2CC(N3CCN(c4ccc5c(c4)-c4nc(N6C(=O)OC[C@H]6C(F)F)cn4CCO5)CC3)C2)cc1)N1CCC1 [Compound 171]
8.44 | 9.70 | C=CC(=O)Nc1ccc(N2CC(N3CCN(c4ccc5c(c4)-c4nc(N6C(=O)OC[C@H]6C(F)F)cn4CCO5)CC3)C2)c(C#N)c1 [Compound 172]
8.40 | 9.52 | C=CC(=O)Nc1ccc(N2CC(N3CCN(c4ccc5c(c4)-c4nc(N6C(=O)OC[C@H]6C(F)F)cn4CCO5)CC3)C2)cc1OC [Compound 173]
